Results as given in US9872922B2, “Anti-EFNA4 antibody-drug conjugates” (PFIZER, INC., priority 2013, dated 2018).
Blank lines part the entries; values can stand above or below the molecule they belong to.

Tests used:
[1] = system: Breast-31 (BR31) TNBC PDX; test: In vivo efficacy, BR31 TNBC PDX; set-up: species or system NOD/SCID mice (human tumor PDX); conditions: for mean tumor volume: 1.5 mg/kg
[2] = system: Breast-22 (BR22) TNBC PDX; test: In vivo efficacy, BR22 TNBC PDX; conditions: for tumor volume ± SEM: 1.5 mg/kg
Excerpt: (§1) In breast and ovarian models, tumor regression was defined as a reduction in mean tumor volume after dosing. TGI=Tumor Growth Inhibition. % TGI=[1−(Mean Tumor Volume of Treated)/(Mean Tumor Volume of Vehicle)]. […] ADC dose levels are listed in mg/kg according to antibody content.

BR17 = test: In vivo efficacy, BR17 HER2+ breast tumor model; set-up: species or system mice; conditions: 1.5 mpk
Excerpt: as §1

[3] = system: Breast-56 (BR56) TNBC PDX; test: In vivo efficacy, BR56 TNBC PDX; set-up: species or system NOD/SCID mice (human tumor PDX); conditions: for tumor volume ± SEM: 1.5 mg/kg
[4] = system: Breast-13 (BR13) TNBC PDX; test: In vivo efficacy, BR13 TNBC PDX; set-up: species or system NOD/SCID mice (human tumor PDX); conditions: for tumor volume ± SEM: 1.5 mg/kg
[5] = system: Ovarian-39 (OV39) ovarian cancer PDX; test: In vivo efficacy, OV39 ovarian cancer PDX; set-up: species or system NOD/SCID mice (human tumor PDX); conditions: 1.5 mg/kg
BR25 = test: In vivo efficacy, BR25 TNBC Claudin-low tumor model; set-up: species or system mice; conditions: 1.5 mpk
Excerpt: as §1

[6] = system: Breast-5 (BR5) triple-negative breast cancer (TNBC) PDX; test: In vivo efficacy, BR5 TNBC PDX; set-up: species or system NOD/SCID mice (human tumor PDX); conditions: for tumor volume ± SEM: 1.5 mg/kg
BR64 = test: In vivo efficacy, BR64 TNBC Claudin-low tumor model; set-up: species or system mice; conditions: 1.5 mpk
Excerpt: as §1

human Ephrin-A4 = target: T1, human Ephrin-A4 (Homo sapiens, UniProt P52798); test: SPR steady state affinity of Eph receptors for Ephrin-A4; format: binding; conditions: SPR BIAcore 2000, steady state affinity fit, captured Eph receptor, monomeric human Ephrin-A4 as analyte
T1 construct: purchased
T1 sequence (P52798 26-170): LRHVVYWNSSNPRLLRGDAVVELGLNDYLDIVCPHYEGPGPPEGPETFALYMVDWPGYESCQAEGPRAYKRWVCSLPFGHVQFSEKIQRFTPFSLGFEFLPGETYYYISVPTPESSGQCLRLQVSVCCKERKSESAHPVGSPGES
Procedure: The properties of Ephrin-A4 binding to Eph receptors were further analyzed. Since anti-EFNA4 antibodies bind to Ephrin-A4 while the ligand is engaged with its Eph receptor, the affinity between these two macromolecules was determined. The affinities of commercially available Eph receptors and Ephrin-A4 were directly compared by surface plasmon resonance using a BIAcore 2000 (GE Healthcare) to determine the most relevant receptor. An anti-human antibody capture kit was used to immobilize recombinant Eph receptors on a CM5 biosensor chip. Prior to each antigen injection cycle, Eph receptors at the concentration of 2 μg/mL were captured on the surface with a contact time of 2 minutes and a flow rate of 5 μL/min. The captured antibody loading from baseline was constant at 150-260 response units. Following receptor capture and 1 min baseline, monomeric human Ephrin-A4 was flowed over the surface at concentrations of 400, 241, 145, 87, 53, 32, 19 and 12 nM for a 2 minute association phase followed by a 2 minute dissociation phase at a flow rate of 10 μL/min. Following each cycle, the anti-human capture surface was regenerated with 30 seconds contact time of 3M MgCl2 at 10 μL/min.
Biacore data was processed by initially calculating an average of the response at equilibrium (Req). The Req was then plotted versus concentration (M) and the steady state affinity fit was used to calculate the affinity and theoretical Rmax. In all cases, at least 5 different analyte concentrations were used to make this calculation. All data analysis steps were completed in BiaEvaluation Software 3.1 (GE Healthcare).

human EFNA4 = target: T2, human EFNA4 (Homo sapiens, UniProt P52798); test: Biacore affinity of anti-EFNA4 antibodies for EFNA4 antigen; format: binding; conditions: Biacore system
T2 sequence (P52798 26-170): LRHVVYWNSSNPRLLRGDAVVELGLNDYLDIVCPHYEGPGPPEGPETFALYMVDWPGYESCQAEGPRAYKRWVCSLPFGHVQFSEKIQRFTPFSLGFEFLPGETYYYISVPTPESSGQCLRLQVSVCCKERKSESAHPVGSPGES
Excerpt: More particularly murine antibodies E5, E15, E22 and E47 were humanized using a computer-aided CDR-grafting method (Abysis Database, UCL Business Pic.) and standard molecular engineering techniques to generate humanized antibodies E5, E15, E22 and E47, hereinafter huE5, huE15, huE22 and huE47, respectively. The human framework regions of the variable regions were selected based on their highest sequence homology to the mouse framework sequence and its canonical structure. For the purposes of the analysis the assignment of amino acids to each of the CDR domains is in accordance with the Kabat et al. numbering.

Molecule: COc1cccc2c1C(=O)c1c(O)c3c(c(O)c1C2=O)C[C@@](O)(C(=O)CO)C[C@@H]3O[C@H]1C[C@H](N)[C@H](O)[C@H](C)O1 [Doxorubicin, doxorubicin, reference compound]
mean tumor volume ([1]; Day 0): 160 ± 11
mean tumor volume ([1]; Day 7): 304 ± 20
mean tumor volume ([1]; Day 14): 458 ± 24
mean tumor volume ([1]; Day 21): 592 ± 56
mean tumor volume ([1]; Day 28): 759 ± 111
% TGI ([1]; 1.5 mpk, BR31 PDX): 30% TGI
impact on tumor growth ([1]; in vivo): neither the control ADC nor doxorubicin SOC impacted tumor growth
tumor volume ± SEM ([2]; Day 0): 244 ± 17 mm^3
tumor volume ± SEM ([2]; Day 7): 416 ± 61 mm^3
tumor volume ± SEM ([2]; Day 14): 553 ± 39 mm^3
tumor volume ± SEM ([2]; Day 21): 729 ± 91 mm^3
% TGI ([2]; 1.5 mpk, BR22 PDX): 27% TGI
impact on tumor growth ([2]; in vivo): Neither the control ADC nor doxorubicin SOC impacted tumor growth
% TGI (BR17): 66% TGI
tumor volume ± SEM ([3]; Day 0): 141 ± 13 mm^3
tumor volume ± SEM ([3]; Day 4): 182 ± 11 mm^3
tumor volume ± SEM ([3]; Day 11): 267 ± 31 mm^3
tumor volume ± SEM ([3]; Day 18): 318 ± 32 mm^3
tumor volume ± SEM ([3]; Day 25): 374 ± 50 mm^3
% TGI ([3]; 1.5 mpk, BR56 PDX): 49% TGI
impact on tumor growth ([3]; in vivo): neither the control ADC nor doxorubicin SOC impacted tumor growth
tumor volume ± SEM ([4]; Day 0): 167 ± 13 mm^3
tumor volume ± SEM ([4]; Day 7): 178 ± 20 mm^3
tumor volume ± SEM ([4]; Day 22): 322 ± 38 mm^3
tumor volume ± SEM ([4]; Day 14): 227 ± 25 mm^3
tumor volume ± SEM ([4]; Day 28): 326 ± 34 mm^3
% TGI ([4]; 1.5 mpk, BR13): 16% TGI
impact on tumor growth ([4]; in vivo): neither the control ADC nor doxorubicin SOC impacted tumor growth
mean tumor volume ([5]; Day 0): 186 ± 33
mean tumor volume ([5]; Day 7): 282 ± 50
mean tumor volume ([5]; Day 14): 171 ± 32
mean tumor volume ([5]; Day 17): 122 ± 24
mean tumor volume ([5]; Day 24): 83 ± 11
mean tumor volume ([5]; Day 28): 118 ± 17
mean tumor volume ([5]; Day 35): 361 ± 40
mean tumor volume ([5]; Day 42): 712 ± 97
mean tumor volume ([5]; Day 49): 966 ± 85
Regression (TTP, Days) or % TGI (BR25): No activity
tumor volume ± SEM ([6]; Day 0): 166 ± 18 mm^3
tumor volume ± SEM ([6]; Day 7): 494 ± 70 mm^3
tumor volume ± SEM ([6]; Day 11): 752 ± 92 mm^3
tumor volume ± SEM ([6]; Day 18): 966 ± 32 mm^3
% TGI ([6]; 1.5 mpk, BR5 PDX): 44% TGI
impact on tumor growth ([6]; in vivo): neither the control ADC nor doxorubicin standard-of-care (SOC) impacted tumor growth
Regression (TTP, Days) or % TGI (BR64): No activity

B1: EphA7 (protein)
chain: QAAKEVLLLDSKAQQTELEWISSPPNGWEEISGLDENYTPIRTYQVCQVMEPNQNNWLRTNWISKGNAQRIFVELKFTLRDCNSLPGVLGTCKETFNLYYYETDYDTGRNIRENLYVKIDTIAADESFTQGDLGERKMKLNTEVREIGPLSKKGFYLAFQDVGACIALVSVKVYYKKCWSIIENLAIFPDTVTGSEFSSLVEVRGTCVSSAEEEAENAPRMHCSAEGEWLVPIGKCICKAGYQQKGDTCEPCGRGFYKSSSQDLQCSRCPTHSFSDKEGSSRCECEDGYYRAPSDPPYVACTRPPSAPQNLIFNINQTTVSLEWSPPADNGGRNDVTYRILCKRCSWEQGECVPCGSNIGYMPQQTGLEDNYVTVMDLLAHANYTFEVEAVNGVSDLSRSQRLFAAVSITTGQAAPSQVSGVMKERVLQRSVELSWQEPEHPNGVITEYEIKYYEKDQRERTYSTVKTKSTSASINNLKPGTVYVFQIRAFTAAGYGNYSPRLDVATLEEATGKMFEATAVSSEQNPV
Kd (human Ephrin-A4): 86 nM

B4: EphA6 (protein)
chain: WPGDCSHVSNNQVVLLDTTTVLGELGWKTYPLNGWDAITEMDEHNRPIHTYQVCNVMEPNQNNWLRTNWISRDAAQKIYVEMKFTLRDCNSIPWVLGTCKETFNLFYMESDESHGIKFKPNQYTKIDTIAADESFTQMDLGDRILKLNTEIREVGPIERKGFYLAFQDIGACIALVSVRVFYKKCPFTVRNLAMFPDTIPRVDSSSLVEVRGSCVKSAEERDTPKLYCGADGDWLVPLGRCICSTGYEEIEGSCHACRPGFYKAFAGNTKCSKCPPHSLTYMEATSVCQCEKGYFRAEKDPPSMACTRPPSAPRNVVFNINETALILEWSPPSDTGGRKDLTYSVICKKCGLDTSQCEDCGGGLRFIPRHTGLINNSVIVLDFVSHVNYTFEIEAMNGVSELSFSPKPFTAITVTTDQDAPSLIGVVRKDWASQNSIALSWQAPAFSNGAILDYEIKYYEKEHEQLTYSSTRSKAPSVIITGLKPATKYVFHIRVRTATGYSGYSQKFEFETGDETSDMAAEQGQILV
Kd (human Ephrin-A4): 82 nM

Second part, the molecule after the results:

Kd (human Ephrin-A4): 108 nM
B2: EphB3 (protein)
chain: GCRALEETLMDTKWVTSELAWTSHPESGWEEVSGYDEAMNPIRTYQVCNVRESSQNNWLRTGFIWRRDVQRVYVELKFTVRDCNSIPNIPGSCKETFNLFYYEADSDVASASSPFWMENPYVKVDTIAPDESFSRLDAGRVNTKVRSFGPLSKAGFYLAFQDQGACMSLISVRAFYKKCASTTAGFALFPETLTGAEPTSLVIAPGTCIPNAVEVSVPLKLYCNGDGEWMVPVGACTCATGHEPAAKESQCRPCPPGSYKAKQGEGPCLPCPPNSRTTSPAASICTCHNNFYRADSDSADSACTTVPSPPRGVISNVNETSLILEWSEPRDLGGRDDLLYNVICKKCHGAGGASACSRCDDNVEFVPRQLGLTERRVHISHLLAHTRYTFEVQAVNGVSGKSPLPPRYAAVNITTNQAAPSEVPTLRLHSSSGSSLTLSWAPPERPNGVILDYEMKYFEKSEGIASTVTSQMNSVQLDGLRPDARYVVQVRARTVAGYGQYSRPAEFETTSERGSGAQQLQEQLPL

affinity for EFNA4 antigen relative to murine counterpart (human EFNA4): slightly lower affinity
B3: huE5: humanized antibody E5, VH SEQ ID NO: 5, VL SEQ ID NO: 7 (antibody, V domains shown)
VH: EVQLVESGGGLVQPGGSLRLSCAASGFTVTTYGVDWVRQAPGKGLEWLGVIWGGGSTNYNSALKSRFTISRDNSKNTLYLQMNSLRAEDTAVYYCASDWAYWGQGTLVTVSS
VL: DIQMTQSPSSLSASVGDRVTITCRASQNVGTNVAWFQQKPGKAPKSLIHSASYRYSGVPSRFSGSGSGTDFTLTISSLQPEDFATYYCQQYKRYPYTFGGGTKLEIK
